# Test results published in patent publication US20090111801A1, “SUBSTITUTED PYRAZINONE DERIVATIVES FOR USE AS A MEDICINE” (Janssen Pharmaceutica N.V., priority 2006, published 2009).
# Assays:
# [1] = target: T1, hα2A receptor (Homo sapiens, UniProt P08913); experiment: Radioligand binding experiment for α2A-adrenoceptor ([3H]raulwolscine, CHO cell membranes); conditions: [3H]raulwolscine binding; for IC50: read-out: h-α2A pIC50 (converted)
# T1 construct: expressed in transfected cells; host or cells: CHO cells, stably transfected; membrane preparation
# T1 sequence (P08913 1-465): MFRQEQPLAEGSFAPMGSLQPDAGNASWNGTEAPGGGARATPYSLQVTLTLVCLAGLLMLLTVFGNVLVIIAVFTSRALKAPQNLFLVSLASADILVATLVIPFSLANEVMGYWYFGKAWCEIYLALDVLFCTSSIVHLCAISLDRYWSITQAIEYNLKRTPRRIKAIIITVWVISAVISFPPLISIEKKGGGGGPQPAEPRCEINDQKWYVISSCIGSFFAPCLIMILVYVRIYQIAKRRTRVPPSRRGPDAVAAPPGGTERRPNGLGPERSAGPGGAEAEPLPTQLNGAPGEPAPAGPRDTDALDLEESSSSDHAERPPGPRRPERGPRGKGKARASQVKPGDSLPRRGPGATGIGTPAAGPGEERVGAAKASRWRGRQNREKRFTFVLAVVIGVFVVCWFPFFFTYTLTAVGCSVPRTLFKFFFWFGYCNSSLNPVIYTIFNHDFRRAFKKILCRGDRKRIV
# [2] = target: T2, hα2C receptor (Homo sapiens, UniProt P18825); experiment: Radioligand binding experiment for α2C-adrenoceptor ([3H]raulwolscine, CHO cell membranes); conditions: [3H]raulwolscine binding; for IC50: read-out: h-α2C pIC50 (converted)
# T2 construct: expressed in transfected cells; host or cells: CHO cells, stably transfected; membrane preparation
# T2 sequence (P18825 1-462): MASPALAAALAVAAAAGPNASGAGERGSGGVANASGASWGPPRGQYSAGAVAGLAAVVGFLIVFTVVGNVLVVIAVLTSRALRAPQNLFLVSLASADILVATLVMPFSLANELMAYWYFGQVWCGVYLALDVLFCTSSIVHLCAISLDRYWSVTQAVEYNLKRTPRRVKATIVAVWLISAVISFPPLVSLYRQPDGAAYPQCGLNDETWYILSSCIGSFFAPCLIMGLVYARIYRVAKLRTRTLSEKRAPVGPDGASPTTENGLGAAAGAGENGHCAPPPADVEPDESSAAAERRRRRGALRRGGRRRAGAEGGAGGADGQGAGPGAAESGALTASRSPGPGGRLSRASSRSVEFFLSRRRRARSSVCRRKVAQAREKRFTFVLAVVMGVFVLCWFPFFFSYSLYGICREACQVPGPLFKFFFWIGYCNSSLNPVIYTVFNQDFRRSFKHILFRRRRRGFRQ
# [3] = target: T3, 5HT-Transporter (Homo sapiens, UniProt P31645); experiment: Binding experiment for the 5HT-transporter ([3H]paroxetine, human platelet membranes); conditions: [3H]paroxetine 0.5 nM; for IC50: read-out: h-5HTT pIC50 (converted)
# T3 construct: Human platelet membranes (Oceanix Biosciences Corporation, Hanover, Md., USA) were thawed; tissue Oceanix Biosciences Corporation, Hanover, Md., USA; host or cells: human platelet membranes
# T3 sequence (P31645 whole entry): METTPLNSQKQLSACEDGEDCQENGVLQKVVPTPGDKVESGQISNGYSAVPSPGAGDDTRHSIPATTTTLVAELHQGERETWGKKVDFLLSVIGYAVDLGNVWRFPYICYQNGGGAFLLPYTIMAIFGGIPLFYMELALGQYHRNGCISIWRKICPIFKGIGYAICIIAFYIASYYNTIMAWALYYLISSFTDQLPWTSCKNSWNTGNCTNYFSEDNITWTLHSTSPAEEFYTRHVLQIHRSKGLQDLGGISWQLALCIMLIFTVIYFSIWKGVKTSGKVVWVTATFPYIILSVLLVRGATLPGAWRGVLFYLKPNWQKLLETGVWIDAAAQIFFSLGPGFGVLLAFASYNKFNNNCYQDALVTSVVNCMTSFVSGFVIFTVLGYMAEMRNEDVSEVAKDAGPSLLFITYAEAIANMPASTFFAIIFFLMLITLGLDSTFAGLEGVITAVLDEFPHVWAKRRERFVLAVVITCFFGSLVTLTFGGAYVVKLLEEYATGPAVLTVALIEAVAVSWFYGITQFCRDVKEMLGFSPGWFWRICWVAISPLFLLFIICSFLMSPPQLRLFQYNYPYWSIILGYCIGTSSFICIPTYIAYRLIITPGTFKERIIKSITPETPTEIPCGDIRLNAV
# Procedure, shortened: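 Filter-bound radioactivity from human platelet membranes incubated with [3H]paroxetine and test compound (buffer Tris-HCl 50 mM, 120 mM NaCl, 5 mM KCl) was counted.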
Compound,IC50 [1],IC50 [2],IC50 [3],h-α2A pIC50 [1],h-α2C pIC50 [2],h-5HTT pIC50 [3]
C/C(=C\c1ccccc1)CN1CCN(c2nccn(CC(=O)c3ccccc3)c2=O)CC1 [12-5],316 nM,50.1 nM,3980 nM,,,
C/C(=C\c1ccccc1)CN1CCC(Nc2nccn(CC(=O)N(CCN3CCCC3)CC3CCCCC3)c2=O)CC1 [1-134],12.6 nM,1.58 nM,501 nM,,,
C/C(=C\c1ccccc1)CN1CCC(Nc2nccn(-c3cccc(CNCCN(C)C)c3)c2=O)CC1 [1-106],,,,7.9,8.8,6.1
C/C(=C\c1ccccc1)CN1CCC(Nc2nccn(Cc3ccc(C(F)(F)F)cc3)c2=O)CC1 [5-23],200 nM,79.4 nM,794 nM,,,
COCCN(C)Cc1cccc(-n2ccnc(NC3CCN(C/C(C)=C/c4ccccc4)CC3)c2=O)c1 [1-25],5.01 nM,1 nM,1580 nM,,,
C/C(=C\c1ccccc1)CN1CCC(Nc2nccn(CC(=O)NCc3ccccc3)c2=O)CC1 [1-48],126 nM,5.01 nM,2000 nM,,,
COC(=O)Cn1ccnc(NC2CCN(C/C=C/c3ccccc3)CC2)c1=O [16-10],1000 nM,200 nM,> 10000 nM,,,
C/C(=C\c1ccccc1)CN1CCC(Nc2nccn(-c3cccc(CNCCN4CCCC4)c3)c2=O)CC1 [1-130],,,,8.2,8.8,6.7
C/C(=C\c1ccccc1)CN1CCN(c2nccn(Cc3csc(C)n3)c2=O)CC1 [13-3],316 nM,79.4 nM,6310 nM,,,
O=c1c(NC2CCN(C/C=C/c3ccccc3)CC2)nccn1CCc1ccccc1 [16-14],794 nM,200 nM,794 nM,,,
C/C(=C\c1ccccc1)CN1CCC(Nc2nccn(Cc3ccc(CNC(=O)c4ccc(C#N)cc4)cc3)c2=O)CC1 [1-75],126 nM,50.1 nM,200 nM,,,
COCCN(C)C(=O)c1ccc(-n2ccnc(NC3CCN(C/C(C)=C/c4ccccc4)CC3)c2=O)cc1 [1-27],31.6 nM,2.51 nM,501 nM,,,
O=c1c(NC2CCN(C/C=C/c3ccccc3)CC2)nccn1Cc1ccc2ccccc2n1 [16-21],501 nM,126 nM,1000 nM,,,
C/C(=C\c1ccccc1)CN1CCC(Nc2nccn(-c3ccncc3)c2=O)CC1 [6-12],50.1 nM,7.94 nM,1580 nM,,,
CCCNC(=O)Cn1ccnc(NC2CCN(C/C(C)=C/c3ccccc3)CC2)c1=O [1-10],126 nM,10 nM,2000 nM,,,
C/C(=C\c1ccccc1)CN1CCC(Nc2nccn(CC(=O)C(C)(C)C)c2=O)CC1 [7-8],126 nM,12.6 nM,> 10000 nM,,,
C/C(=C\c1ccccc1)CN1CCC(Nc2nccn(CC(=O)NCCN(C)C)c2=O)CC1 [1-102],31.6 nM,2 nM,3160 nM,,,
C/C(=C\c1ccccc1)CN1CCC(Nc2nccn(-c3cccc(NC(=O)CC4CCCC4)c3)c2=O)CC1 [1-34],63.1 nM,20 nM,631 nM,,,
CC(=O)NCc1ccc(-n2ccnc(NC3CCN(C/C(C)=C/c4ccccc4)CC3)c2=O)cc1 [1-29],,,,7.0,8.1,6.0
C/C(=C\c1ccccc1)CN1CCC(Nc2nccn(CC(=O)N3CCC(Cc4ccccc4)CC3)c2=O)CC1 [2-13],100 nM,5.01 nM,251 nM,,,
CNCCCn1ccnc(NC2CCN(C/C(C)=C/c3ccccc3)CC2)c1=O [1-8],50.1 nM,3.16 nM,3980 nM,,,
COc1ccc(-n2ccnc(NC3CCN(C/C(C)=C/c4ccccc4)CC3)c2=O)cc1 [3-9],5.01 nM,7.94 nM,50.1 nM,,,
C/C(=C\c1ccccc1)CN1CCC(Nc2nccn(Cc3csc(C)n3)c2=O)CC1 [6-7],251 nM,39.8 nM,2000 nM,,,
C/C(=C\c1ccccc1)CN1CCC(Nc2nccn(CCCN(C(=O)Nc3ccccc3)c3ccccc3)c2=O)CC1 [1-122],100 nM,7.94 nM,200 nM,,,

Compound,IC50 [1],IC50 [2],IC50 [3],h-α2A pIC50 [1],h-α2C pIC50 [2],h-5HTT pIC50 [3]
C/C(=C\c1ccccc1)CN1CCN(c2nccn(CCCNC(=O)OC(C)(C)C)c2=O)CC1 [8-3],398 nM,79.4 nM,2510 nM,,,
CCOC(=O)N1CCN(Cc2ccc(-n3ccnc(NC4CCN(C/C(C)=C/c5ccccc5)CC4)c3=O)cc2)CC1 [2-37],398 nM,31.6 nM,6310 nM,,,
C/C(=C\c1ccccc1)CN1CCC(Nc2nccn(Cc3ccc(F)cc3)c2=O)CC1 [5-13],158 nM,63.1 nM,1260 nM,,,
CCc1ccc(-n2ccnc(NC3CCN(C/C(C)=C/c4ccccc4)CC3)c2=O)cc1 [5-4],39.8 nM,12.6 nM,398 nM,,,
CC(=O)Cn1ccnc(NC2CCN(C/C=C/c3ccccc3)CC2)c1=O [16-24],1000 nM,316 nM,> 10000 nM,,,
C/C(=C\c1ccccc1)CN1CCC(Nc2nccn(CCCOc3ccccc3)c2=O)CC1 [3-19],63.1 nM,20 nM,200 nM,,,
C/C(=C\c1ccccc1)CN1CCC(Nc2nccn(-c3ccc(CN4CCOCC4)cc3)c2=O)CC1 [2-44],50.1 nM,6.31 nM,2000 nM,,,
CCCCCn1ccnc(NC2CCN(C/C(C)=C/c3ccccc3)CC2)c1=O [7-5],100 nM,31.6 nM,251 nM,,,
C/C(=C\c1ccccc1)CN1CCC(Nc2nccn(-c3ccc(NC(=O)Nc4ccc(F)cc4)cc3)c2=O)CC1 [1-120],200 nM,25.1 nM,126 nM,,,
C/C(=C\c1ccccc1)CN1CCC(Nc2nccn(-c3cccc(CN(C)Cc4ccccc4)c3)c2=O)CC1 [1-53],,,,8.4,8.6,6.7
COC(=O)CCNCc1cccc(-n2ccnc(NC3CCN(C/C(C)=C/c4ccccc4)CC3)c2=O)c1 [1-95],,,,7.6,8.9,5.9
COC(=O)C1CCN(C(=O)Cn2ccnc(NC3CCN(C/C(C)=C/c4ccccc4)CC3)c2=O)CC1 [2-15],126 nM,3.98 nM,3980 nM,,,
CCOC(=O)N1CCN(C(=O)Cn2ccnc(NC3CCN(C/C(C)=C/c4ccccc4)CC3)c2=O)CC1 [2-35],158 nM,31.6 nM,2510 nM,,,
COC(=O)c1cccc(Cn2ccnc(NC3CCN(C/C(C)=C/c4ccccc4)CC3)c2=O)c1 [3-13],25.1 nM,20 nM,501 nM,,,
C/C(=C\c1ccccc1)CN1CCC(Nc2nccn(-c3ccc(N4CCCCC4)cc3)c2=O)CC1 [2-8],39.8 nM,10 nM,501 nM,,,
C/C(=C\c1ccccc1)CN1CCC(Nc2nccn(CCCN3C(=O)c4ccccc4C3=O)c2=O)CC1 [2-50],31.6 nM,1 nM,126 nM,,,
C/C(=C\c1ccccc1)CN1CCC(Nc2nccn(CC(=O)N(CCN3CCOCC3)Cc3ccc(F)cc3)c2=O)CC1 [1-151],126 nM,2 nM,1260 nM,,,
C/C(=C\c1ccccc1)CN1CCC(Nc2nccn(Cc3ccc(CNS(=O)(=O)c4ccc(C(F)(F)F)cc4)cc3)c2=O)CC1 [1-163],158 nM,39.8 nM,794 nM,,,
C/C(=C\c1ccccc1)CN1CCC(Nc2nccn(-c3ccc(CNCCN(C)C)cc3)c2=O)CC1 [1-105],39.8 nM,5.01 nM,631 nM,,,
COCC(=O)NCc1ccc(Cn2ccnc(NC3CCN(C/C(C)=C/c4ccccc4)CC3)c2=O)cc1 [1-93],158 nM,50.1 nM,1260 nM,,,
C/C(=C\c1ccccc1)CN1CCC(Nc2nccn(-c3ccc(CNCCN4CCCC4)cc3)c2=O)CC1 [1-131],25.1 nM,3.16 nM,158 nM,,,
C/C(=C\c1ccccc1)CN1CCC(Nc2nccn(-c3ccc(C(=O)N4CCN(C)CC4)cc3)c2=O)CC1 [2-21],100 nM,10 nM,501 nM,,,
C/C(=C\c1ccccc1)CN1CCC(Nc2nccn(-c3cccc(N4CCCCC4)c3)c2=O)CC1 [2-6],3.98 nM,2.51 nM,316 nM,,,
